Results from patent EP4603105A1, “PHARMACEUTICAL COMPOSITION CONTAINING CYCLIC COMPOUND HAVING SELECTIVE KRAS INHIBITORY EFFECT AGAINST HRAS AND NRAS” (CHUGAI SEIYAKU KABUSHIKI KAISHA, priority 2022, dated 2024).
Like-named read-outs stand apart in the source and are kept apart here.

Columns and labels:
[1] = molecular target: HRAS wild-type protein (Homo sapiens, UniProt P01112); assay: Binding to HRAS by surface plasmon resonance (SPR), KD and KD ratio to KRAS
Method in brief: (§1)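 Each cycle, GDP-bound biotin-Avi RAS was captured (~100–300 RU), compound concentrations were injected low to high for 75 s each at 100 µL/min, then the chip was regenerated. Buffer: HBS pH 7.4, 10 mM MgCl2, 10 µM GDP, 1 mM DTT, 4% DMSO; 30°C. KD from a 1:1 binding model.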

[2] = tested on: human lung cancer strain NCI-H441; assay: NCI-H441 cell proliferation inhibitory activity (CellTiter-Glo, 4 days); assay type: cell-based; conditions: read-out: NCl-H441 IC50
Method in brief: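 Signal came from […] measured per well once the reagent was added. Beforehand, cells were cultured at 37°C and 5% carbon dioxide on a compound series serially diluted in dimethyl sulfoxide.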

[3] = molecular target: GDP-bound KRAS wild-type protein (Homo sapiens, UniProt P01116); assay: Binding to KRAS by surface plasmon resonance (SPR), dissociation constant KD
Method in brief: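 Affinity is measured by surface plasmon resonance at 30°C against captured, GDP-loaded RAS carrying a biotinylated Avi tag. Compounds are titrated by single-cycle kinetics, and KD comes from a 1:1 fit.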

[4] = molecular target: GDP-bound NRAS wild-type protein (Homo sapiens, UniProt P01111); assay: Binding to NRAS by surface plasmon resonance (SPR), KD and KD ratio to KRAS
Method in brief: as §1

[5] = ratio of KD for HRAS wild-type protein to KD for KRAS
[6] = ratio of KD for GDP-bound NRAS wild-type protein to KD for KRAS
[7] = ratio of KD with respect to HRAS wild-type protein to KD with respect to KRAS
[8] = 50% proliferation inhibitory concentration, four days
[9] = Single Cycle Kinetics, 1:1 binding model
[10] = ratio of KD with respect to GDP-bound NRAS wild-type protein to KD with respect to KRAS

GDP-bound KRAS wild-type protein, sequence (P01116 1-188 isoform P01116-2): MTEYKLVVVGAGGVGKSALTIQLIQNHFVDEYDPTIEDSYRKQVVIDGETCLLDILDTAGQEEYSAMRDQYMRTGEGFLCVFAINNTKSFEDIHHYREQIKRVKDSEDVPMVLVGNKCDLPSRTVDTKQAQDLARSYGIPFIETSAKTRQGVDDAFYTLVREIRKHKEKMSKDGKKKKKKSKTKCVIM
GDP-bound NRAS wild-type protein, sequence (P01111 whole entry): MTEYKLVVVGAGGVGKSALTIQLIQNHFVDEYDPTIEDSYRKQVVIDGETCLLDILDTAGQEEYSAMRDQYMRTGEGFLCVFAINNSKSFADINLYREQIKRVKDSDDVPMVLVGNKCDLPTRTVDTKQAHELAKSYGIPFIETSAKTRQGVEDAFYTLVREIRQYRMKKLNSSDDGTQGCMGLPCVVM
HRAS wild-type protein, sequence (P01112 whole entry): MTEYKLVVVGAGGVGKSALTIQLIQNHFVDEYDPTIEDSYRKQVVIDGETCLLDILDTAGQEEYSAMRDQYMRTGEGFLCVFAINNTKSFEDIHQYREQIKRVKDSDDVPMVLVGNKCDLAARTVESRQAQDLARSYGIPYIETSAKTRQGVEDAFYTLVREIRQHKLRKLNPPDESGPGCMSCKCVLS

SMILES	HRAS /KRAS [1, 5]	IC50 ([2]; NCI-H441 cells, 4 days)	Kd ([3]; Single Cycle Kinetics)	NRAS /KRAS [4, 6]	Kd ([3]; 1:1 binding model)	HRAS /KRAS [1, 7]	IC50 [2, 8]	Kd [3, 9]	NRAS /KRAS [4, 10]
CCCO[C@@H]1C[C@H]2C(=O)NC3(CC(C)(C)C3)C(=O)N(C)[C@@H](C3CCCC3)C(=O)N(C)[C@H](C(=O)N(C)CC)CC(=O)N[C@@H](COCC)C(=O)N[C@@H]([C@@H](C)CC)C(=O)N(C3CC3)CC(=O)N(C)[C@H]3C/C=C\CCN(C3=O)[C@@H](Cc3ccc(C)cc3)C(=O)N(C)CC(=O)N[C@@H](CCc3ccc(C(F)(F)F)c(Cl)c3)C(=O)N2C1 [PP3429]	A (a compound having 10 or more and less than 20 is denoted as A)	78.6 nM	2.5 nM	A (a compound having 10 or more and less than 20 is denoted as A)	–	–	–	–	–
CCC[C@H]1C(=O)N[C@@H]([C@@H](C)CC)C(=O)N(C2CC2)CC(=O)N(C)[C@H]2C/C=C\CCN(C2=O)[C@@H](CC2CCC(F)(F)CC2)C(=O)N(C)CC(=O)N[C@@H](CCc2ccc(C(F)(F)F)c(OC)c2)C(=O)N2C[C@@H](C)C[C@H]2C(=O)N(C)C2(CCC2)C(=O)N(C)[C@@H](C2CCCC2)C(=O)N(C)[C@H](C(=O)N(C)C)CC(=O)N1C [PP2378]	A (a compound having 10 or more and less than 20 is denoted as A)	48.3 nM	–	B (a compound having 3 or more and less than 10 is denoted as B)	0.88 nM	–	–	–	–
CCCO[C@@H]1C[C@H]2C(=O)NC3(CC(C)(C)C3)C(=O)N(C)[C@@H](C3CCCC3)C(=O)N(C)[C@H](C(=O)N(C)CC)CC(=O)N(C)[C@@H](COCC)C(=O)N[C@@H]([C@@H](C)CC)C(=O)N3C[C@@H](F)C[C@H]3C(=O)N(C)[C@H]3C/C=C\CCN(C3=O)[C@@H](Cc3ccc(C(F)(F)F)cc3)C(=O)N(C)CC(=O)N[C@@H](CCc3ccc(C(F)(F)F)c(Cl)c3)C(=O)N2C1 [PP3409]	A (a compound having 10 or more and less than 20 is denoted as A)	21 nM	0.55 nM	A (a compound having 10 or more and less than 20 is denoted as A)	–	–	–	–	–
CCC(CC)[C@H]1C(=O)N(C)[C@H](C(=O)N(C)C)CC(=O)N(C)[C@@H](COC)C(=O)N[C@@H]([C@@H](C)CC)C(=O)N2CCC[C@H]2C(=O)N(C)[C@H]2C/C=C\CCN(C2=O)[C@@H](Cc2ccc(C(F)F)cc2)C(=O)N(C)CC(=O)N[C@@H](CCc2ccc(Cl)c(Cl)c2)C(=O)N2C[C@H](OC3CCCC3)C[C@H]2C(=O)NC2(CC(C)(C)C2)C(=O)N1C [PP2652]	A (a compound having 10 or more and less than 20 is denoted as A)	82.7 nM	–	AA (a compound having 20 or more is denoted as AA)	1.5 nM	–	–	–	–
CCO[C@@H]1C[C@H]2C(=O)NC3(CCC3)C(=O)N(C)[C@@H](C3CCCC3)C(=O)N(C)[C@H](C(=O)N(C)C)CC(=O)N(C)[C@@H](CC3CC3)C(=O)N[C@@H]([C@@H](C)CC)C(=O)N(C)CC(=O)N(C)[C@H]3C/C=C\CCN(C3=O)[C@@H](CC3CCC(F)(F)CC3)C(=O)N(C)CC(=O)N[C@@H](CCc3cc(F)c(C(F)(F)F)c(F)c3)C(=O)N2C1 [PP1447]	–	–	–	–	–	A (a compound having 10 or more and less than 20 is denoted as A)	28.9 nM	0.12 nM	A (a compound having 10 or more and less than 20 is denoted as A)
CCO[C@@H]1C[C@H]2C(=O)NC3(CC(C)(C)C3)C(=O)N(C)[C@@H](C(CC)CC)C(=O)N(C)[C@H](C(=O)N(C)C)CC(=O)N(C)[C@@H](COC)C(=O)N[C@@H]([C@@H](C)CC)C(=O)N(C3CC3)CC(=O)N(C)[C@H]3C/C=C\CCN(C3=O)[C@@H](CC3CCC(F)(F)CC3)C(=O)N(C)CC(=O)N[C@@H](CCc3cc(F)c(C(F)(F)F)c(F)c3)C(=O)N2C1 [PP2568]	B (a compound having 3 or more and less than 10 is denoted as B)	23.4 nM	–	A (a compound having 10 or more and less than 20 is denoted as A)	1.2 nM	–	–	–	–
CCCOC[C@H]1C(=O)N[C@@H]([C@@H](C)CC)C(=O)N(C)CC(=O)N(C)[C@H]2C/C=C\CCN(C2=O)[C@@H](Cc2ccc(C)cc2)C(=O)N(C)CC(=O)N[C@@H](CCc2ccc(C(F)(F)F)c(Cl)c2)C(=O)N2C[C@H](OCC)C[C@H]2C(=O)NC2(CC(C)(C)C2)C(=O)N(C)[C@@H](C2CCCC2)C(=O)N(C)[C@H](C(=O)N(C)C)CC(=O)N1C [PP2402]	A (a compound having 10 or more and less than 20 is denoted as A)	10.6 nM	–	A (a compound having 10 or more and less than 20 is denoted as A)	0.092 nM	–	–	–	–
C#CCN1CC(=O)N(C)[C@H]2C/C=C\CCN(C2=O)[C@@H](Cc2ccc(C)cc2)C(=O)N(C)CC(=O)N[C@@H](CCc2cc(F)c(C(F)(F)F)c(F)c2)C(=O)N2C[C@H](OCC)C[C@H]2C(=O)NC2(CC(C)(C)C2)C(=O)N(C)[C@@H](C2CCCC2)C(=O)N(C)[C@H](C(=O)N(C)C)CC(=O)N(C)[C@@H](CCC)C(=O)N[C@@H](CC(C)C)C1=O [PP2512]	A (a compound having 10 or more and less than 20 is denoted as A)	109 nM	–	A (a compound having 10 or more and less than 20 is denoted as A)	2 nM	–	–	–	–
CC[C@H](C)[C@@H]1NC(=O)[C@H](C)N(C)C(=O)C[C@@H](C(=O)N(C)C)N(C)C(=O)[C@H](C2CCCC2)N(C)C(=O)C2(CCC2)NC(=O)[C@@H]2CCCN2C(=O)[C@H](CCc2cc(F)c(C(F)(F)F)c(F)c2)NC(=O)CN(C)C(=O)[C@H](Cc2ccc(C(F)(F)F)cc2)N2CC/C=C\C[C@@H](C2=O)N(C)C(=O)CN(C)C1=O [PP1271]	–	–	–	–	–	A (a compound having 10 or more and less than 20 is denoted as A)	90.7 nM	0.054 nM	AA (a compound having 20 or more is denoted as AA)
CCC[C@H]1C(=O)N[C@@H]([C@@H](C)CC)C(=O)N(C)CC(=O)N(C)[C@H]2C/C=C\CCN(C2=O)[C@@H](Cc2ccc(C(F)(F)F)cc2)C(=O)N(C)CC(=O)N[C@@H](CCc2ccc(C(F)(F)F)c(OC)c2)C(=O)N2C[C@H](OCC)C[C@H]2C(=O)NC2(CCC2)C(=O)N(C)[C@@H](C(CC)CC)C(=O)N(C)[C@H](C(=O)N(C)C)CC(=O)N1C [PP1208]	–	–	–	–	–	A (a compound having 10 or more and less than 20 is denoted as A)	24.4 nM	0.17 nM	AA (a compound having 20 or more is denoted as AA)
CCO[C@@H]1C[C@H]2C(=O)NC3(CCC3)C(=O)N(C)[C@@H](C3CCCC3)C(=O)N(C)[C@H](C(=O)N3CCOCC3)CC(=O)N(C)[C@@H](CC(C)C)C(=O)N[C@@H]([C@@H](C)CC)C(=O)N(C)CC(=O)N(C)[C@H]3C/C=C\CCN(C3=O)[C@@H](Cc3ccc(C(F)(F)F)cc3)C(=O)N(C)CC(=O)N[C@@H](CCc3cc(F)c(C(F)(F)F)c(F)c3)C(=O)N2C1 [PP1282]	–	–	–	–	–	A (a compound having 10 or more and less than 20 is denoted as A)	12.3 nM	0.2 nM	A (a compound having 10 or more and less than 20 is denoted as A)
CCC[C@H]1C(=O)N[C@@H]([C@@H](C)CC)C(=O)N(C)CC(=O)N(C)[C@H]2C/C=C\CCN(C2=O)[C@@H](Cc2ccc(C)cc2)C(=O)N(C)CC(=O)N[C@@H](CCc2ccc(Cl)c(Cl)c2)C(=O)N2C[C@H](OC3CCC3)C[C@H]2C(=O)NC2(CC(C)(C)C2)C(=O)N(C)[C@@H](C(CC)CC)C(=O)N(C)[C@H](C(=O)N(C)C)CC(=O)N1C [PP2644]	A (a compound having 10 or more and less than 20 is denoted as A)	75 nM	–	AA (a compound having 20 or more is denoted as AA)	0.81 nM	–	–	–	–
CCO[C@@H]1C[C@H]2C(=O)NC3(CCC3)C(=O)N(C)[C@@H](C3CCCC3)C(=O)N(C)[C@H](C(=O)N3CCCC3)CC(=O)N(C)[C@@H](CC)C(=O)N[C@@H]([C@@H](C)CC)C(=O)N(C)CC(=O)N(C)[C@H]3C/C=C\CCN(C3=O)[C@@H](CC3CCCCC3)C(=O)N(C)CC(=O)N[C@@H](CCc3cc(F)c(C(F)(F)F)c(F)c3)C(=O)N2C1 [PP1443]	–	–	–	–	–	A (a compound having 10 or more and less than 20 is denoted as A)	34.8 nM	0.15 nM	AA (a compound having 20 or more is denoted as AA)
CCC[C@H]1C(=O)N[C@@H]([C@@H](C)CC)C(=O)N(C)CC(=O)N(C)[C@H]2C/C=C\CCN(C2=O)[C@@H](Cc2ccc(C)cc2)C(=O)N(C)CC(=O)N[C@@H](CCc2cc(F)c(C(F)(F)F)c(F)c2)C(=O)N2CC3(CC3)C[C@H]2C(=O)NC2(CCC2)C(=O)N(C)[C@@H](C(CC)CC)C(=O)N(C)[C@H](C(=O)N(C)C)CC(=O)N1C [PP3420]	A (a compound having 10 or more and less than 20 is denoted as A)	13.2 nM	0.42 nM	AA (a compound having 20 or more is denoted as AA)	–	–	–	–	–
CCC(CC)[C@H]1C(=O)N(C)[C@H](C(=O)N(C)C)CC(=O)N(C)[C@@H](CC2CC2)C(=O)N[C@@H]([C@H](C)CC)C(=O)NCC(=O)N(C)[C@H]2C/C=C\CCN(C2=O)[C@@H](Cc2ccc(C(F)F)cc2)C(=O)N(C)CC(=O)N[C@@H](CCc2ccc(Cl)c(C(F)(F)F)c2)C(=O)N2C[C@H](OC(C)C)C[C@H]2C(=O)N(C)C2(CC(C)(C)C2)C(=O)N1C [PP3508]	A (a compound having 10 or more and less than 20 is denoted as A)	57.2 nM	5.4 nM	A (a compound having 10 or more and less than 20 is denoted as A)	–	–	–	–	–
